The text below walks through data of patent US20080089859A1, “ADMINISTRATION OF SLEEP RESTORATIVE AGENTS” (priority 2001, published 2008).

Data set [1] deals with rheumatoid arthritis (Ra) and Psoriatic arthritis (PsA) patients. The data set is described as follows: Study of Example 1 continued to 18 months (Example 2). It is filed as in vivo, human. The following applies: for Response of improved patients after adding the agent to their treatment: 12 month to 18 month time point, on Etanercept. An excerpt:
The study of Example 1 was continued to 18 months. […] Fibromyalgia was a surrogate for a lack of deep (e.g., stage IV) restorative sleep.
JC refers to the number of swollen tender joints.

For data set [2], the system named is patients with Behcet's Syndrome. Description: Treatment of patients with Behcet's Syndrome. In kind it is in vivo, human. The following applies: for Symptoms observed in the patient: second patient (pramipexole added to lorazepam), third patient (clonazepam 2 mg qhs); for Discontinuation of prednisone: single patients, lorazepam 2 mg qhs (patient 1), pramipexole added to lorazepam (patient 2), clonazepam 2 mg qhs (patient 3). As for the experimental part:
Three patients with Behcet's Syndrome were treated according to the present invention. For one patient, prednisone administration was supplemented with lorazepam at 2 mg qhs. […] For a second patient, lorazepam at 2 mg qhs was co-admnistered with Dapsone and prednisone.

The subject of data set [3] is patients with Palindromic Rheumatism. The data set is described as follows: Treatment of patients with Palindromic Rheumatism. The following applies: five patients; clonazepam 2 mg, pramipexole 1-6 mg and/or lorazepam 2 mg qhs. In kind it is in vivo, human. The method, then:
Five patient with Palindromic Rheumatism were treated according to the present invention. After adding clonazepam 2 mg, pramipexole 1-6 mg and/or lorazepam 2 mg qhs to their treatment, the patients reported that episodic severe pain decreased dramatically, by 90%.

Data set [4] deals with patients having rheumatoid arthritis. Description: Rheumatoid arthritis patients on Leflunamide given sleep restorative agents. In kind it is in vivo, human. The following applies: lorazepam, clonazepam and/or pramipexole.
For data set [5], the system named is patients with Sjogren's Syndrome. Description: Treatment of patients with dry eyes and mouth from Sjogren's Syndrome. It is filed as in vivo, human. The following applies: Lorazepam 1-2 mg po qhs, Pramipexole later 0.5-4.0 mg qhs; for Resolution of dryness (eyes and mouth): 3 patients on Hydroxychloroquine 200 mg po bid, nearly complete resolution in third patient; for Hydroxychloroquine sparing: 3 patients. As for the experimental part: Three patients with dry eyes and mouth from Sjogren's Syndrome, were treated with lorazepam or pramipexole. […] Lorazepam was administered at 1-2 mg po qhs. Pramipexole was later administered at 0.5-4.0 mg qhs.

The subject of data set [6] is patients with Ankylosing Spondylitis. Description: Treatment of patients with Ankylosing Spondylitis. It is filed as in vivo, human. The following applies: six patients on Methotrexate, steroids 2-10 mg qd and Etanercept; lorazepam 1-2 mg qhs or pramipexole 0.5-3.0 mg qhs. The method, then: Six patients with Ankylosing Spondylitis were treated according to the present invention. […] The patients were administered lorazepam 1-2 mg qhs or pramipexole 0.5-3.0 mg qhs.

Data set [7] has as its system patients with Systemic Lupus Erythematosis. Description: Treatment of patients with Systemic Lupus Erythematosis. It is filed as in vivo, human. The method, then:
Patients with Systemic Lupus Erythematosis were treated according to the present invention.
The dose range of pramipexole ranged from 2-6 mg qhs.

Data set [8] has as its system patient with chronic gout. The data set is described as follows: Treatment of a patient with chronic gout and severe synovitis. It is filed as in vivo, human. The following applies: for Discontinuation of other medications / Prednisone dose reached: one patient; for Discontinuation of other medications: pramipexole and lorazepam added together; for Prednisone dose reached: colchicine, hydroxychloroquine and Etanercept added together, before sleep agents. As for the experimental part:
Adding colchicine, hydroxychloroquine and Etanercept only allowed them to decrease prednisone to 15 mg qd.

In the next data set the test system is patient with pseudogout. Description: Treatment of a patient with pseudogout. It is filed as in vivo, human. The following applies: one patient on colchicine; lorazepam 2 mg qhs added for sleep.
In data set [9] the test system is patients with Multiple Sclerosis (MS). The following applies: for MS activity: three patients, pramipexole and/or lorazepam added; for Tolerability: human, in vivo. As for the experimental part:
Eight patients with Multiple Sclerosis (MS) were treated according to the present invention.

Data set [10] deals with patients having rheumatoid arthritis. Description: Rheumatoid arthritis patients on Infliximab given sleep restorative agents. In kind it is in vivo, human. The following applies: lorazepam 1-2 mg qhs or pramipexole.
Data set [11] relates to patient with ocular and articular Sarcoidosis. The following applies: one patient steroid-dependent for two years; Pramipexole to 3 mg qhs. From the text: A patient with ocular and articular Sarcoidosis was steroid-dependent for two years.
Data set [12] deals with patient with Reiter's Syndrome. The following applies: one patient on Etanercept; pramipexole up to 4 mg qhs.
Data set [13] has as its system patients having rheumatoid arthritis. Description: Rheumatoid arthritis patients on prednisone given Ropinirole. It is filed as in vivo, human. The following applies: Ropinirole 2-20 mg qhs.

For the compound `O=C1CN=C(c2ccccc2Cl)c2cc([N+](=O)[O-])ccc2N1` [Clonazepam], the “Response of improved patients after adding the agent to their treatment” value (“Response of improved patients” for short) in data set [1] was “did much better from the 12 month time point to the 18 month time point”. Moreover, in data set [2], the “Symptoms observed in the patient” value is “less fatigue and no further mouth ulcers were observed”; the Discontinuation of prednisone result was “able to discontinue prednisone 10 mg qd”. In data set [3], the “Decrease of episodic severe pain” value is 90%; the Other medications stopped entry was “off narcotics, steroids, Etanercept, Infliximab, leflunamide, Azothioprine, sulfasalazine, hydroxychloroquine and colchicine”. The Leflunamide efficacy entry in data set [4] is “increased Leflunamide efficacy”.
As for `O=C1Nc2ccc(Cl)cc2C(c2ccccc2Cl)=NC1O` (stereo not shown) [Lorazepam], the “Response of improved patients” value in data set [1] is recorded as “did much better from the 12 month time point to the 18 month time point”. Moreover, in data set [5], the “Resolution of dryness (eyes and mouth)” value is “Complete resolution of the dryness in 2 of 3 patients”; the Hydroxychloroquine sparing result is “One daily dose of Hydroxychloroquine was discontinued and benefit maintained”. The “Discontinuation of Dapsone” value in [2] (second patient, lorazepam 2 mg qhs with Dapsone and prednisone) is recorded as “Dapsone could be discontinued without further seizures”. For the same compound, the Discontinuation of prednisone entry in data set [2] is recorded as “able to d/c prednisone in two months”. Also, the “Discontinuation of Methotrexate and steroids” value in [6] is “All six patients were able to discontinue Methotrexate and steroids”. This compound returned a Prednisone dose reached in data set [7] (patient steroid-dependent at 20 mg qd on leflunamide, lorazepam 2 mg qhs added) of 15 mg qhs. Moreover, in data set [3], the “Decrease of episodic severe pain” value was 90%; the Other medications stopped entry is “off narcotics, steroids, Etanercept, Infliximab, leflunamide, Azothioprine, sulfasalazine, hydroxychloroquine and colchicine”. For the same compound, the “Discontinuation of other medications” value in [8] is “allowed the patient to discontinue steroids, colchicine, hydroxychoroquine, and narcotics”. The Flares entry in the data set with patient with pseudogout is listed as “no flares for three years”. Further, the Sleep and fibromyalgia entry in data set [9] (one patient flaring uncontrollably, Lorazepam 2 mg qhs) is “still exhibited poor sleep and fibromyalgia”. Besides, the MS activity entry in data set [9] was “MS was quiet for over three years”. Moreover, the Leflunamide efficacy entry in data set [4] was “increased Leflunamide efficacy”. Besides, the Infliximab efficacy result in [10] is reported as “increased efficacy of Infliximab”.
Consider `CCCNC1CCc2nc(N)sc2C1` (stereo not shown) [Pramipexole, 2-amino-4,5,6,7-tetrahydro-6-(propylamino)benzo-thiazole], for which, in [1], the “Response of improved patients” value was “did much better from the 12 month time point to the 18 month time point”. The “Expected prednisone discontinuation after conversion back to inactive FM” value in data set [1] (one patient who developed FM and needs prednisone 10 mg qd, planned treatment) is on record as “expected to allow them to discontinue prednisone”. Besides, in data set [5], the “Resolution of dryness (eyes and mouth)” value is listed as “Complete resolution of the dryness in 2 of 3 patients”; the Hydroxychloroquine sparing result is “One daily dose of Hydroxychloroquine was discontinued and benefit maintained”. Moreover, in data set [2], the “Symptoms observed in the patient” value is listed as “No fatigue, mouth ulcers, skin vasculitis, hoarse voice or seizures were observed” and the Discontinuation of prednisone entry was “prednisone 5 mg qd could be discontinued”. For the same compound, the “Discontinuation of Methotrexate and steroids” value in [6] was “All six patients were able to discontinue Methotrexate and steroids”. Further, the “Decrease or d/c of prednisone” value in [7] (8 patients, pramipexole 2-6 mg qhs) came out at 80%. In data set [7] (person with life threatening leukopenia, steroids 60 mg qd before, Pramipexole increased to 3.5 mg q hs over 3 months), this compound had a Prednisone dose reached of 5 mg qd. For the same compound, in [7] (same patient after pramipexole 3-4.5 mg qhs), the Symptoms noted entry is “much less fatigue, anemia, joint pain, and had stable kidney function”. The Prednisone dose reached in data set [7] (same patient, pramipexole 3-4.5 mg qhs added, first time in 7 years) was determined as 5 mg qd. The Complete blood count result in data set [7] (same person, after Pramipexole) is reported as “maintaining normal complete blood count”. Moreover, the “Decrease of steroids with disease still controlled” value in [11] was determined as 90%. For the same compound, in data set [3], the “Decrease of episodic severe pain” value is recorded as 90%; the Other medications stopped entry was “off narcotics, steroids, Etanercept, Infliximab, leflunamide, Azothioprine, sulfasalazine, hydroxychloroquine and colchicine”. Further, the “Discontinuation of other medications” value in data set [8] was “allowed the patient to discontinue steroids, colchicine, hydroxychoroquine, and narcotics”. Moreover, in [9], the Tolerability result is “intolerant” and the MS activity entry is reported as “MS was quiet for over three years”. The Leflunamide efficacy result in data set [4] is “increased Leflunamide efficacy”. Moreover, in data set [10], the Infliximab efficacy entry is given as “increased efficacy of Infliximab”. Also, in data set [12], the “Discontinuation of other medications” value was “able to discontinue methotrexate, steroids 5-10 mg qd, and narcotics”; the “Response of dactylitis and synovitis” value is “dactylitis and synovitis responded better to Etanercept”.
Consider `CCCN(CCC)CCc1cccc2c1CC(=O)N2.Cl` [Ropinirole, 4-[2-(dipropylamino)-ethyl]-1,3-dihydro-2H-indol-2-one mono hydrochloride], for which the Tolerability entry in data set [9] was “intolerant”. In addition, the Prednisone dose entry in data set [13] was “able to lower their prednisone doses”.
Turning to `COc1cc2c(c(OC)c1OC)-c1ccc(OC)c(=O)cc1[C@@H](NC(C)=O)CC2` [colchicine], in data set [8], the Prednisone dose reached worked out at 15 mg qd. In addition, the Flares entry in the data set with patient with pseudogout is “flare ups were previously uncontrolled”.
Consider `CCN(CCO)CCCC(C)Nc1ccnc2cc(Cl)ccc12` (stereo not shown) [hydroxychloroquine], for which the Prednisone dose reached in data set [8] stood at 15 mg qd.
`C[C@]12C=CC(=O)C=C1CC[C@@H]1[C@@H]2C(=O)C[C@@]2(C)[C@H]1CC[C@]2(O)C(=O)CO` [prednisone]: in data set [8] (prednisone 10-40 mg qd for two months), the “Control of severe synovitis” value is “uncontrolled”.
